Active and inactive are the calls of the source.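 How the source made its calls: active means compounds giving half or more protection of infected cells from virus-caused growth loss, again on retest; inactive means the rest.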
Test system: CEM cells HIV-1 protection, formazan growth assay
Test: NCI AIDS Antiviral Assay
Settings: for IC50: measured here: growth of uninfected CEM cells
In short: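 Human CEM cells, uninfected and HIV-1-infected, received five drug concentrations, and growth was read by soluble formazan assay. Compounds giving at least 50% protection were retested; reproducible 100% protection defined confirmed active.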

SMILES | EC50 | IC50 | outcome
ONC1=Nc2cc(Cl)ccc2C(=S)N2CSCC12 (stereo unspecified) | > 200 µM | > 200 µM | –
CC1=NN(C(=O)c2ccncc2)C(=O)C1 | > 200 µM | > 200 µM | –
CCOC(=O)CC1CN(Cc2ccccc2)CCC1=O (stereo unspecified) | – | – | inactive
CCCCCCCCCCCCCCCCOCC(COC1OC(CO)C(O)C(O)C1O)OCCCCCCCCCCCCCCCC (stereo unspecified) | > 19.5 µM | – | –
N#CCCC1(CCC#N)CCCCCCC(CCC#N)(CCC#N)C(=O)C1=O | > 200 µM | > 200 µM | –
COC(=O)c1ccccc1NC(c1ccccn1)c1ccc2cccnc2c1O (stereo unspecified) | > 25.7 µM | 1.32 µM | –
O=C1C=C(N2CCCC2)c2ncccc2C1=O | – | – | inactive
NS(=O)(=O)c1ccc(SSc2ccc(S(N)(=O)=O)cc2[N+](=O)[O-])c([N+](=O)[O-])c1 | 30.9 µM | 195 µM | –
Cn1c(=O)n2n(c1=O)[C@@H](c1ccccc1)[C@H]2c1ccccc1 | > 200 µM | 91.2 µM | –
O=[N+]([O-])c1cc(-c2ccccc2)c([O][Sn]([c]2ccccc2)([c]2ccccc2)[c]2ccccc2)c([N+](=O)[O-])c1 | > 200 µM | 3.8 µM | –
CCOC(=O)c1nnc(-c2ccccc2)nc1Cl | > 200 µM | > 200 µM | –
CCC12OC(=O)C34CC(C(=O)N(CCc5c3[nH]c3ccccc53)C41)C2I (stereo unspecified) | – | – | inactive
CC1(C)CCC[C@]2(C)[C@H]3[C@H](C#N)c4cc(O)c(O)cc4O[C@@]3(C)CC[C@@H]12 | > 200 µM | 1.41 µM | –
COc1cc(C2c3cc4c(cc3CC3COC(=O)N32)OCO4)cc(OC)c1OC (stereo unspecified) | > 25.1 µM | 1.38 µM | –
CC(CCC(C)C(=O)O)C(=O)O (stereo unspecified) | > 1450 µM | > 1450 µM | –
O=C(O)CCc1nc(-c2ccccc2)c(-c2ccccc2)o1 | > 200 µM | > 200 µM | –
CCC(=O)SC1CC2=CC(=O)CCC2(C)C2CCC3(C)C(O)CCC3C12 (stereo unspecified) | > 200 µM | > 200 µM | –
Cn1c(=O)n(C2(C)CSC2)c2ccccc21 | > 562 µM | 178 µM | –
Cc1oc2ccccc2c(=O)c1CN1CCN(c2ccccn2)CC1 | > 214 µM | 129 µM | –
Cc1nc2ccccc2c(=O)n1/N=C(\N=Nc1cc(Cl)ccc1Cl)c1ccc(N(C)C)cc1 | – | – | inactive
C[C@H]1ON2CCC[C@@H]2[C@@H]1C(=O)N1C2CC3CCC2(CS1(=O)=O)C3(C)C (stereo partly specified) | > 200 µM | > 200 µM | –
C[Si](C)(C)C1=C2C(=O)c3ccccc3C(=O)C2=C([Si](C)(C)C)[C@@H]2CCCC[C@H]12 | > 50.1 µM | > 50.1 µM | –
COC(=O)N1C[C@@]2(C=CC3(CC2)OCCO3)c2ccccc21 | > 200 µM | 3.55 µM | –

SMILES | EC50 | IC50 | outcome
CC(C)CCC[C@@H](C)C1CCC2[C@@H]3CCC4C[C@@H](NS(C)(=O)=O)CC[C@]4(C)C3CC[C@@]21C (stereo partly specified) | > 200 µM | > 200 µM | –
Cc1ccccc1-n1c(=O)c2ncn(CCCl)c2n(-c2ccccc2C)c1=S | > 200 µM | 102 µM | –
N#CC1C2C1C1C=CC2n2c(=O)n(-c3ccccc3)c(=O)n21 (stereo unspecified) | > 200 µM | > 200 µM | –
Cc1noc2cccc(OCc3ccccc3)c12 | > 30.2 µM | > 30.2 µM | –
COC(=O)C1=C(c2ccccc2)ON2C(C)(C)COC12C (stereo unspecified) | > 200 µM | > 200 µM | –
CN1C(=O)CC2CCCN2C1=O (stereo unspecified) | > 200 µM | > 200 µM | –
COC(=O)c1cccc2cccc(C(=O)N(C)CCN(C)C)c12 | > 708 µM | > 708 µM | –
CSC1=C(SC)C(=O)c2cn(C)c(=O)cc2C1=O | > 200 µM | 0.977 µM | –
NC1=NC2=C(CCCC2)C(c2cccs2)S1 (stereo unspecified) | > 145 µM | > 145 µM | –
COc1cccc(/C=C\C#N)c1 | > 316 µM | > 316 µM | –
CCOC(=O)/C(C#N)=C/c1ccco1 | > 263 µM | > 263 µM | –
O=C(O)c1ccccc1S(=O)O | > 200 µM | > 200 µM | –
CC1(C)OCC2OC3([C@@H]4OC(C)(C)O[C@H]4CO)OC(C)(C)OC3C2O1 (stereo partly specified) | > 200 µM | > 200 µM | –
COc1c(OC)c(OC)c2c(=O)c(OC)c(-c3ccc4c(c3)OCO4)oc2c1OC | > 200 µM | > 200 µM | –
COc1ccc(C(=O)O[C@H]2[C@@H]3C=CO[C@@H](OC4OC(CO)C(O)C(O)C4O)[C@@H]3[C@@]3(CO)O[C@@H]23)cc1O (stereo partly specified) | – | – | inactive
Clc1nncc2sc(-c3ccccc3)nc12 | > 151 µM | 8.32 µM | –
COC(=O)c1ccc(N/C=C(/C#N)c2ccsc2)cc1 | > 47.9 µM | > 47.9 µM | –
CCCCCCCCCn1ccnc1NCCCCCCNc1nccn1CCCCCCCCC | > 7.24 µM | 3.63 µM | –
O=C(Cc1ccccc1)Nc1ccccc1Cl | > 204 µM | > 204 µM | –
CN1C(=O)C23SSC1(C)C(=O)N2c1ccccc1C3(C)C (stereo unspecified) | > 200 µM | 7.94 µM | –
CCOC(=O)CCn1cnc(N)n1 | – | – | inactive
COc1ccc2nc3cc([N+](=O)[O-])ccc3c(NNc3ccc(Cl)cc3)c2c1 | > 200 µM | 33.1 µM | –
COC1=CC(=O)C(Br)=CC1=O | – | – | inactive

SMILES | EC50 | IC50 | outcome
COc1cc2c(oc(=O)c3c4occc4cc(OC)c23)c2cccc(OCc3ccccc3)c12 | > 1.15 µM | > 1.15 µM | –
O=C1CCSc2c(cnc3ccccc23)N1 | > 200 µM | > 200 µM | –
O=Cc1c(O)ccc2ccc(O)c(-c3c(O)ccc4ccc(O)cc34)c12 | > 363 µM | 20.9 µM | –
Cc1ccc2nsnc2c1[N+](=O)[O-] | > 257 µM | > 257 µM | –
Clc1ccc(-n2nnc(C3=NCCN3)c2-c2ccccc2)cc1 | > 30.9 µM | > 30.9 µM | –
CCOC(=O)c1nc2ccccc2nc1NCc1cc(OC)c(OC)c(OC)c1 | > 200 µM | 27.5 µM | –
[NH-]/N=C(\[O-])c1ccncc1.[NH-]/N=C(\[O-])c1ccncc1.[Ni+2] | > 100 µM | > 100 µM | –
CC1=C(C)C(=O)C2=C(OCCCO2)C1=O | > 1200 µM | 3.39 µM | –
O=C(O)/C=C/C=C/C(=O)O | > 200 µM | > 200 µM | –
CNC(=S)SSSC(=S)NC | – | – | inactive
c1ccc(SCCC(Sc2ccccc2)Sc2ccccc2)cc1 | > 200 µM | 93.3 µM | –
COc1ccc(/C(=C/n2ccnc2)C(O)c2ccc(OC)c(OC)c2)cc1OC (stereo unspecified) | > 126 µM | > 126 µM | –
CCCCCCCCCCCCCCCCCCOP1(=O)OCCO1 | > 50.1 µM | > 50.1 µM | –
CCN(CC)CC[NH-].O=C([O-])[O-].O=C([O-])[O-].[Co+3].[K+] | > 200 µM | 18.6 µM | –
C=CCCC(CCC=C)(C(=O)O)C(=O)O | > 1170 µM | > 1170 µM | –
CC(=O)O[C@H]1CC[C@@]2(C)C(=CC[C@H]3C(CC#N)[C@@](C)(C#N)CCC32)C1 (stereo partly specified) | – | – | inactive
N=Nc1c2ccccc2c2nc3c(N)[nH]nc(N)c3nc12 | > 45.7 µM | 28.8 µM | –
O=[N+]([O-])c1cc(Br)cc2c1[nH]c1nc3ccc(C(F)(F)F)cc3nc12 | > 45.7 µM | 8.32 µM | –
Cc1cc(NS(=O)(=O)c2ccc(Nc3c4ccccc4nc4c(C(=O)Nc5ccccc5)cccc34)cc2)no1 | > 200 µM | 10.5 µM | –
Cc1cc(-c2cscn2)c(O)c([N+](=O)[O-])c1 | > 200 µM | 35.5 µM | –
Cc1c2ccccc2c(=O)n2c(-c3ccccn3)cccc12 | > 200 µM | 120 µM | –
O=C(Cn1c2c(c3ccccc31)CCCC2)N1CCOCC1 | > 200 µM | > 200 µM | –
